The target of assay [1] is T1, Leukotriene D4 (LTD4) receptor (Cavia porcellus, UniProt Q2NNR5).
T1 construct: lung cell membrane fractions of guinea pigs were used; from tissue; host or cells: lung membrane fractions of Hartley strain male guinea pigs
T1 sequence (Q2NNR5 1-340): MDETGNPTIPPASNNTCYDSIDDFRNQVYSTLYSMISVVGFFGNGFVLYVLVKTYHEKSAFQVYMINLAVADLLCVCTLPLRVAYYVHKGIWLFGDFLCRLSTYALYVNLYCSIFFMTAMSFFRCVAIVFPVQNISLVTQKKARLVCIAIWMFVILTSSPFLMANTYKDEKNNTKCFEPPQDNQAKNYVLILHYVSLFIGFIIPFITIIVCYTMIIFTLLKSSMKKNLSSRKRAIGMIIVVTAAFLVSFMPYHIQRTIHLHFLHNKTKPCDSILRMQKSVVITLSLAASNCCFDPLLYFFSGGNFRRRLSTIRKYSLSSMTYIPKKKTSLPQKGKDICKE
Nature of the assay: Leukotriene D4 receptor binding test ([3H]ICI-198615 displacement, lung cell membrane fractions). As to conditions: guinea pig lung membranes, [3H]ICI-198615 about 0.2 nM, pKi=-log Ki. On the procedure: Leukotriene D4 receptor binding test
<Preparation of receptor samples>
As receptor samples, lung cell membrane fractions of guinea pigs were used. The membrane fractions were prepared according to the method of Ahn et al. (Ahn, H. S. & Barnett, A. (1986) Eur. J. Pharmacol., 127, 153.). After Hartley strain male guinea pigs (body weight: 400 to 500 g, supplied by Nihon SLC Co.) were killed by exsanguination, lungs were extracted and perfused with a physiological saline solution (Otsuka Seiyaku) from lung arteries. The extracted lungs were cut into pieces immediately or after the lungs were stored by freezing them at -80 ° C. A 10-fold amount of a buffer solution (pH 7.4) of 10 mM PIPES, 10 mM MgCl2, 10 mM CaCl2 and 50 mM NaCl was added thereto and the mixtures were made suspensions by a homogenizer (manufactured by Yamato Co., LP-41C Model). After the suspensions were filtered with gauze, the filtrates were centrifuged by an ultracentrifuge (manufactured by Hitachi Co., 70P-72 Model) with 50,000 g for 10 minutes, whereby membrane fractions were deposited. The membrane fractions were washed twice and then suspended in the same buffer solution to obtain receptor samples. Measurement of a protein concentration was conducted by the Lowry method (Lowry, O, H. et al. (1951) J. Biol. Chem., 193,265.) by using bovine serum albumin as a standard protein. The samples prepared (protein amount: 10 to 25 mg/ml) were stored by freezing them at -80° C. and used for experiments.
<Leukotriene D4 receptor binding test>
The leukotriene D4 (LTD4) receptor binding test was conducted according to the method of O'Sullivan et al. (O'Sullivan, B. P. & Mong, S. (1989) Mol. Pharmacol., 35, 795.). The receptor samples were diluted with a buffer solution (pH 7.4) of 10 mM PIPES, 10 mM MgCl2, 10 mM CaCl2 and 50 mM NaCl and 0.42 mg/ml in terms of a protein amount was used. As a labeling compound, [^3 H]ICI-198615 (produced by Du Pont Co., 60 Ci/mmol) which specifically binds to the LTD4 receptor was used. [^3 H]ICI-198615 and a compound to be tested were dissolved in dimethylsulfoxide and a 1/50 amount (2% by volume) of the solution was added to the receptor-diluted solutions, respectively. 500 μl of each reaction mixture was incubated at 25° C. for 40 minutes and then filtered with a glass fiber filter (Whatman, GF/B type) by using a cell harvester (manufactured by Brandel Co., M-30R Model). The filters were washed with 10 ml of an ice-cooled 100 mM NaCl-50 mM phosphate buffer solution (pH 7.5) and subjected to ultrasonic treatment in 9 ml of a liquid scintillator (manufactured by Nacalai Tesque, Co., Clear sol I) for 2 minutes. Thereafter, radioactivity was measured by a liquid scintillation counter (manufactured by Packard Co., 2000 CA Model). In a test of determining a dissociation constant of ICI-198615, 0.1 to 2 nM [^3 H]ICI-198615 and 10 μM non-radioactive ICI-198615 were used. In a test of determining inhibition constants of the respective compounds to be tested, [^3 H]ICI-198615 having a concentration of about 0.2 nM and the compounds each having a concentration of 0.1 pM to 0.1 mM were used.
<Data analysis of receptor binding test>
The dissociation constant (Kd) of ICI-198615 and the binding inhibition constants (Ki) of the respective compounds to be tested were determined by the following numerical formulae (A), (B) and (C).
wherein B: a concentration of a label [3H] which is bound to a receptor, Bmax: a maximum receptor-binding concentration of a label [^3 H], F: a concentration of a label [^3 H] which is not bound to a receptor, [L]: a concentration of a label [^3 H], IC50 : a concentration of a compound which inhibits 50% of binding of a label [^3 H] to a receptor and pKi: a logarithm, of a reciprocal of Ki.

The test system of assay [2] is Leukotriene D4-induced respiratory contraction. Nature of the assay: Leukotriene D4-induced respiratory contraction test (Konzett and Rossler method). The assay is classed as in vivo, guinea pig. Particulars: Cavia porcellus, po, LTD4 0.5 μg/kg i.v. 1 hour later, anesthetized Hartley guinea pigs, read-out: Inhibition ratio. On the procedure:
Leukotriene D4 -induced respiratory contraction test
Hartley strain male guinea pigs (body weight: 400 to 600 g, supplied by Nihon SLC Co.) were used and all of them were bred under conditions of constant temperature (23°±2° C.) and constant humidity ([…]). The animals which had been fasted for 24 hours before experiments were used.
LTD4 (Funakoshi) dissolved in a physiological saline solution (Otsuka Seiyaku) was used. The compounds to be tested suspended in a 0.5% carboxymethyl cellulose aqueous solution were used.
The operation was conducted according to the method of Konzett and Rossler (Konzett, H. and Rossler, R. Naunyn Schmiedebergs (1940) Arch. Exp. Pathol. Pharmacol., 195, 71.). Each guinea pig was anesthetized with urethane (1.5 g/kg, i.p.) and then fixed in the supine position. A trachea was incised and a .phi. type cannula was inserted into the trachea and connected to a respirator (Shinano Seisakusho, SN-480-7) for small animals. Artificial respiration with positive pressure was conducted with a pressure loaded to a lung of 10 cm H2 O, an air supplying rate of 5 ml/stroke and 60 strokes/min. The air supplying rate to the trachea was measured by differential pressure transducers (Nihon Koden, TU-241T and TP-602T) connected to the cannula in the trachea and recorded on a rectigraph (Nihon Koden, WT-645G Model).
LTD4 (0.5 μg/kg/0.5 ml) was administered intravenously (i.v.) from a cannula inserted into a common jugular vein to cause shrinkage of a trachea. Subsequently, a compound to be tested was administered orally (p.o.) after 10 minutes and LTD4 was administered intravenously (i.v.) again after 1 hour to cause shrinkage of the trachea. The results are shown by using a ratio of inhibiting a trachea-shrinking reaction before administering the compound to be tested.

Setting [3] is: read-out: pKi value (converted).

Read-outs that look alike come from different tables or passages of the source.

Take `O=C(O)CCSC1c2ccccc2COc2ccc(OCc3ccc4cc(F)c(Cl)cc4n3)cc21` (single isomer, unassigned; (+)) [Example 50, (+)-11-(2-Carboxyethylthio)-2-(7-chloro-6-fluoroquinolin-2-yl)methoxy-6,11-dihydrodibenz[b,e]oxepine]: the Ki in assay [1] (pKi value) was 0.0794 nM. The inhibition in vivo at 1 mg/kg in assay [2] turned out to be 100%.
Take `c1ccc(Cc2nnn[nH]2)c(COc2ccc(OCc3ccc4ccccc4n3)cc2)c1` [Compound A, 5-[[2-[[4-(2-quinolinylmethoxy)phenoxy]methyl]phenyl]methyl]-1H-tetrazole, reference compound]: the Ki in assay [1] (setting [3]) is 6.31 nM. Besides, the inhibition in vivo at 1 mg/kg in assay [2] came to 51%.
`O=C(O)CCSC1c2ccccc2COc2ccc(OCc3ccc4cc(F)c(Cl)cc4n3)cc21` (centres unmarked) [Example 1, 11-(2-Carboxyethylthio)-2-(7-chloro-6-fluoroquinolin-2-yl)methoxy-6,11-dihydrodibenz[b,e]oxepine]: the inhibition in vivo at 1 mg/kg in assay [2] is 100%.
`O=C(O)CCSC1c2ccccc2COc2ccc(OCc3ccc4ccc(Cl)cc4n3)cc21` (centres unmarked) [Example 2, 11-(2-Carboxyethylthio)-2-(7-chloroquinolin-2-yl)methoxy-6,11-dihydrodibenz[b,e]oxepine] showed a Ki in assay [1] (pKi value) of 0.794 nM. Further, the inhibition in vivo at 1 mg/kg in assay [2] is 100%.
Taken in the same sequence, the figures for `O=C(O)CCSC1c2ccccc2COc2ccc(OCc3ccc4cc(F)ccc4n3)cc21` (centres unmarked) [Example 3, 11-(2-Carboxyethylthio)-2-(6-fluoroquinolin-2-yl)methoxy-6,11-dihydrodibenz[b,e]oxepine] were 3.16 nM and 100%.
In assay [1] (pKi value), `O=C(O)CCSC1c2ccccc2COc2ccc(OCc3ccc4ccc(F)cc4n3)cc21` (centres unmarked) [Example 4, 11-(2-Carboxyethylthio)-2-(7-fluoroquinolin-2-yl)methoxy-6,11-dihydrodibenz[b,e]oxepine] had a Ki of 1.58 nM. In assay [2], the inhibition in vivo at 1 mg/kg was 93%.
Compound `COc1ccc2c(c1)COc1ccc(OCc3ccc4ccc(Cl)cc4n3)cc1C2SCCC(=O)O` (centres unmarked) [Example 13, 11-(2-Carboxyethylthio)-2-(7-chloroquinolin-2-yl)methoxy-8-methoxy-6,11-dihydrodibenz[b,e]oxepine] gave a Ki in assay [1] (pKi value) of 0.794 nM. The inhibition in vivo at 1 mg/kg in assay [2] is 67%.
Compound `O=C(O)CSC1c2ccccc2COc2ccc(OCc3ccc4ccc(Cl)cc4n3)cc21` (centres unmarked) [Example 21, 11-Carboxymethylthio-2-(7-chloroquinolin-2-yl)methoxy-6,11-dihydrodibenz[b,e]oxepine] gave a Ki in assay [1] (pKi value) of 0.794 nM. For the same compound, the inhibition in vivo at 1 mg/kg in assay [2] is 71%.
On to `O=C(O)COC1c2ccccc2COc2ccc(OCc3ccc4cc(Cl)ccc4n3)cc21` (centres unmarked) [Example 26, 11-Carboxymethoxy-2-(6-Chloroquinolin-2-yl)methoxy-6,11-dihydrodibenz[b,e]oxepine], for which the Ki in assay [1] (setting [3]) was 1.58 nM. Moreover, the inhibition in vivo at 1 mg/kg in assay [2] is 87%.
